System: 677734-321-R-J1-PDC complex spheroid viability
Assay: Anticancer human tumor 677734-321-R-J1-PDC patient-derived soft tissue sarcoma cell line growth inhibition [POLQ]
Conditions: for IC50: curve of first compound; for viability, T/C: stronger effect = lower value
Summary of the method: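 PDC + HUVEC + MSC complex spheroids; POLQ inhibitors ± partner drugs; top conc. at/near clinical Cmax, else 10 microM (SN-38 1 microM), half-log dilutions; 37 degrees C, 5% CO2.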

[1] = second compound 0.0316 µM, first compound 0.0316 µM
[2] = second compound 0.0316 µM, first compound 0.1 µM
[3] = second compound 0.0316 µM, first compound 0.316 µM
[4] = second compound 0.0316 µM, first compound 1 µM
[5] = second compound 0.0316 µM, first compound 3.16 µM
[6] = second compound 0.0316 µM, first compound 10 µM
[7] = second compound 0.1 µM, first compound 0.0316 µM
[8] = second compound 0.1 µM, first compound 0.1 µM
[9] = second compound 0.1 µM, first compound 0.316 µM
[10] = second compound 0.1 µM, first compound 1 µM
[11] = second compound 0.1 µM, first compound 3.16 µM
[12] = second compound 0.1 µM, first compound 10 µM
[13] = second compound 0.316 µM, first compound 0.0316 µM
[14] = second compound 0.316 µM, first compound 0.1 µM
[15] = second compound 0.316 µM, first compound 0.316 µM
[16] = second compound 0.316 µM, first compound 1 µM
[17] = second compound 0.316 µM, first compound 3.16 µM
[18] = second compound 0.316 µM, first compound 10 µM
[19] = second compound 1 µM, first compound 0.0316 µM
[20] = second compound 1 µM, first compound 0.1 µM
[21] = second compound 1 µM, first compound 0.316 µM
[22] = second compound 1 µM, first compound 1 µM
[23] = second compound 1 µM, first compound 3.16 µM
[24] = second compound 1 µM, first compound 10 µM
[25] = second compound 3.16 µM, first compound 0.0316 µM
[26] = second compound 3.16 µM, first compound 0.1 µM
[27] = second compound 3.16 µM, first compound 0.316 µM
[28] = second compound 3.16 µM, first compound 1 µM
[29] = second compound 3.16 µM, first compound 3.16 µM
[30] = second compound 3.16 µM, first compound 10 µM
[31] = second compound 10 µM, first compound 0.0316 µM
[32] = second compound 10 µM, first compound 0.1 µM
[33] = second compound 10 µM, first compound 0.316 µM
[34] = second compound 10 µM, first compound 1 µM
[35] = second compound 10 µM, first compound 3.16 µM
[36] = second compound 10 µM, first compound 10 µM
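Note: spheroids exposed to compounds for one week.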
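Throughout, for viability, T/C: 100% = vehicle DMSO treated spheroids.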

## C#Cc1c(F)ccc2cc(O)cc(-c3ncc4c(N5CC6CCC(C5)N6)nc(OCC56CCCN5CC(F)C6)nc4c3F)c12 (stereo not drawn) + Cc1cccc(N(C)C(=O)C2C(O)CCN2c2nc(C)cc(C(F)(F)F)c2C#N)c1
Second compound 0.0316 µM
  IC50: > 10 µM
Second compound 0.1 µM
  IC50: > 10 µM
Second compound 0.316 µM
  IC50: > 10 µM
Second compound 1 µM
  IC50: > 10 µM
Second compound 3.16 µM
  IC50: > 10 µM
Second compound 10 µM
  IC50: > 10 µM
[1]
  viability, T/C: 110%
[2]
  viability, T/C: 101%
[3]
  viability, T/C: 108%
[4]
  viability, T/C: 103%
[5]
  viability, T/C: 101%
[6]
  viability, T/C: 102%
[7]
  viability, T/C: 111%
[8]
  viability, T/C: 106%
[9]
  viability, T/C: 105%
[10]
  viability, T/C: 100%
[11]
  viability, T/C: 106%
[12]
  viability, T/C: 107%
[13]
  viability, T/C: 118%
[14]
  viability, T/C: 97.5%
[15]
  viability, T/C: 100%
[16]
  viability, T/C: 100%
[17]
  viability, T/C: 110%
[18]
  viability, T/C: 104%
[19]
  viability, T/C: 105%
[20]
  viability, T/C: 97%
[21]
  viability, T/C: 109%
[22]
  viability, T/C: 100%
[23]
  viability, T/C: 107%
[24]
  viability, T/C: 102%
[25]
  viability, T/C: 98.1%
[26]
  viability, T/C: 102%
[27]
  viability, T/C: 103%
[28]
  viability, T/C: 109%
[29]
  viability, T/C: 101%
[30]
  viability, T/C: 107%
[31]
  viability, T/C: 99.9%
[32]
  viability, T/C: 104%
[33]
  viability, T/C: 107%
[34]
  viability, T/C: 99.2%
[35]
  viability, T/C: 103%
[36]
  viability, T/C: 98.8%

## C=CC(=O)N1CCN(c2nc(=O)n(-c3c(C)ccnc3C(C)C)c3nc(-c4c(O)cccc4F)c(F)cc23)C(C)C1 (stereo not drawn) + Cc1cccc(N(C)C(=O)C2C(O)CCN2c2nc(C)cc(C(F)(F)F)c2C#N)c1
Second compound 0.0316 µM
  IC50: > 10 µM
Second compound 0.1 µM
  IC50: > 10 µM
Second compound 0.316 µM
  IC50: > 10 µM
Second compound 1 µM
  IC50: > 10 µM
Second compound 3.16 µM
  IC50: > 10 µM
Second compound 10 µM
  IC50: > 10 µM
[1]
  viability, T/C: 108%
[2]
  viability, T/C: 99.5%
[3]
  viability, T/C: 103%
[4]
  viability, T/C: 104%
[5]
  viability, T/C: 110%
[6]
  viability, T/C: 88%
[7]
  viability, T/C: 105%
[8]
  viability, T/C: 104%
[9]
  viability, T/C: 101%
[10]
  viability, T/C: 107%
[11]
  viability, T/C: 102%
[12]
  viability, T/C: 93.4%
[13]
  viability, T/C: 106%
[14]
  viability, T/C: 105%
[15]
  viability, T/C: 103%
[16]
  viability, T/C: 103%
[17]
  viability, T/C: 113%
[18]
  viability, T/C: 92%
[19]
  viability, T/C: 109%
[20]
  viability, T/C: 94.9%
[21]
  viability, T/C: 107%
[22]
  viability, T/C: 104%
[23]
  viability, T/C: 108%
[24]
  viability, T/C: 85.5%
[25]
  viability, T/C: 101%
[26]
  viability, T/C: 100%
[27]
  viability, T/C: 105%
[28]
  viability, T/C: 108%
[29]
  viability, T/C: 108%
[30]
  viability, T/C: 81.8%
[31]
  viability, T/C: 105%
[32]
  viability, T/C: 100%
[33]
  viability, T/C: 98.6%
[34]
  viability, T/C: 103%
[35]
  viability, T/C: 81.1%
[36]
  viability, T/C: 80.1%

## CC1COCCN1c1cc(C2(O)CC3CCC(C2)O3)c2cnn(-c3ccn[nH]3)c2n1 (stereo not drawn) + Cc1cccc(N(C)C(=O)C2C(O)CCN2c2nc(C)cc(C(F)(F)F)c2C#N)c1
Second compound 0.0316 µM
  IC50: 0.0962 µM
Second compound 0.1 µM
  IC50: 0.122 µM
Second compound 0.316 µM
  IC50: 0.0957 µM
Second compound 1 µM
  IC50: 0.0991 µM
Second compound 3.16 µM
  IC50: 0.0832 µM
Second compound 10 µM
  IC50: 0.0803 µM
[1]
  viability, T/C: 76.5%
[2]
  viability, T/C: 49%
[3]
  viability, T/C: 26.5%
[4]
  viability, T/C: 19%
[5]
  viability, T/C: 17.3%
[6]
  viability, T/C: 17.8%
[7]
  viability, T/C: 87.8%
[8]
  viability, T/C: 54.8%
[9]
  viability, T/C: 27.2%
[10]
  viability, T/C: 22.5%
[11]
  viability, T/C: 22.2%
[12]
  viability, T/C: 16.9%
[13]
  viability, T/C: 83.6%
[14]
  viability, T/C: 48.9%
[15]
  viability, T/C: 28.1%
[16]
  viability, T/C: 21%
[17]
  viability, T/C: 18.3%
[18]
  viability, T/C: 15.2%
[19]
  viability, T/C: 94.2%
[20]
  viability, T/C: 49.6%
[21]
  viability, T/C: 26.1%
[22]
  viability, T/C: 18%
[23]
  viability, T/C: 17.4%
[24]
  viability, T/C: 16.4%
[25]
  viability, T/C: 85.5%
[26]
  viability, T/C: 43.4%
[27]
  viability, T/C: 25.1%
[28]
  viability, T/C: 18.4%
[29]
  viability, T/C: 28.6%
[30]
  viability, T/C: 14%
[31]
  viability, T/C: 85.6%
[32]
  viability, T/C: 41.3%
[33]
  viability, T/C: 24.2%
[34]
  viability, T/C: 21.8%
[35]
  viability, T/C: 16.9%
[36]
  viability, T/C: 15.7%

## CCc1cc2c(N3CCc4c(cc(Cn5ccnc5)cc4-c4cn(C)nc4C(F)(F)F)C3=O)cc(C)nc2c(OC)n1 + Cc1cccc(N(C)C(=O)C2C(O)CCN2c2nc(C)cc(C(F)(F)F)c2C#N)c1
Second compound 0.0316 µM
  IC50: 6.44 µM
Second compound 0.1 µM
  IC50: 5.35 µM
Second compound 0.316 µM
  IC50: 4.3 µM
Second compound 1 µM
  IC50: 5.15 µM
Second compound 3.16 µM
  IC50: 3.65 µM
Second compound 10 µM
  IC50: 2.27 µM
[1]
  viability, T/C: 104%
[2]
  viability, T/C: 116%
[3]
  viability, T/C: 84%
[4]
  viability, T/C: 94%
[5]
  viability, T/C: 65.5%
[6]
  viability, T/C: 39.3%
[7]
  viability, T/C: 97.3%
[8]
  viability, T/C: 94.7%
[9]
  viability, T/C: 99.7%
[10]
  viability, T/C: 75.6%
[11]
  viability, T/C: 66.3%
[12]
  viability, T/C: 33.1%
[13]
  viability, T/C: 92.4%
[14]
  viability, T/C: 102%
[15]
  viability, T/C: 98.8%
[16]
  viability, T/C: 81.8%
[17]
  viability, T/C: 58.8%
[18]
  viability, T/C: 28.5%
[19]
  viability, T/C: 111%
[20]
  viability, T/C: 106%
[21]
  viability, T/C: 92.2%
[22]
  viability, T/C: 88.1%
[23]
  viability, T/C: 62.7%
[24]
  viability, T/C: 31.6%
[25]
  viability, T/C: 101%
[26]
  viability, T/C: 98.6%
[27]
  viability, T/C: 94%
[28]
  viability, T/C: 82.3%
[29]
  viability, T/C: 52.1%
[30]
  viability, T/C: 31.8%
[31]
  viability, T/C: 92.5%
[32]
  viability, T/C: 76.1%
[33]
  viability, T/C: 70.4%
[34]
  viability, T/C: 58.4%
[35]
  viability, T/C: 48.1%
[36]
  viability, T/C: 34.1%
